Experimental data from patent US7872115B2, “Reporter assay screens for protein targets in Saccharomyces cerevisiae” (Schering Corporation, priority 2004, dated 2011).
Converted amounts (≈) assume the structure as drawn. Like-named read-outs stand apart in the source and are kept apart here.

Columns and labels:
[1] = tested on: yeast Y229-1 (PCDC48 (SEQ ID NO: 53)-PH05-Renlla Luciferase); assay: MIC determined visually; type: cell-based, Saccharomyces cerevisiae; settings: minimum inhibitor concentration at which there is an approximately 90% drop in cell number relative to the uninhibited control
[2] = tested on: yeast Y229-1 (PCDC48 (SEQ ID NO: 53)-PH05-Renlla Luciferase); assay: IC90 calculated from Renilla luciferase light output (baseline promoter reporter); type: cell-based, Saccharomyces cerevisiae; settings: 24 hours at 30° C., YPD, 1% DMSO
[3] = Saccharomyces cerevisiae, read-out: MIC
[4] = Saccharomyces cerevisiae, inhibitor concentration at which there is a 90% drop in luciferase signal relative to the uninhibited control, read-out: IC90

Structure (SMILES)	MIC [1]	IC90 ([2]; inhibitor concentration at which there is a 90% drop in luciferase signal relative to the uninhibited control)	MIC [1, 3]	IC90 [2, 4]	IC90 ([2]; Saccharomyces cerevisiae, […], read-out: IC90)
C[C@@H]1[C@H](O)[C@@H](C)/C=C/C=C/C=C/C=C/C=C/C=C/C=C/[C@H](O[C@@H]2O[C@H](C)[C@@H](O)[C@H](N)[C@@H]2O)C[C@@H]2O[C@](O)(C[C@@H](O)C[C@@H](O)[C@H](O)CC[C@@H](O)C[C@@H](O)CC(=O)O[C@H]1C)C[C@H](O)[C@H]2C(=O)O [AMB, amphotericin B]	0.3 µg/mL (≈ 0.325 µM)	0.3 µg/mL (≈ 0.325 µM)	–	–	–
Nc1nc(=O)[nH]cc1F [5FC, 5-fluorocytosine]	–	–	2.5 µg/mL (≈ 19.4 µM)	1.9 µg/mL (≈ 14.7 µM)	–
OC(Cn1cncn1)(Cn1cncn1)c1ccc(F)cc1F [FLU, fluconazole]	–	–	0.2 µg/mL (≈ 0.653 µM)	0.3 µg/mL (≈ 0.98 µM)	–
CN(C/C=C/C#CC(C)(C)C)Cc1cccc2ccccc12 [TRB, terbinafine]	–	–	1.56 µg/mL (≈ 5.35 µM)	1.4 µg/mL (≈ 4.8 µM)	–
C[C@@H](c1ncncc1F)[C@](O)(Cn1cncn1)c1ccc(F)cc1F [VOR, voriconazole]	–	–	0.015 µg/mL (≈ 0.0429 µM)	0.008 µg/mL (≈ 0.0229 µM)	–
CC[C@H](C)C[C@H](C)CCCCCCCCC(=O)N[C@H]1C[C@@H](O)[C@@H](NCCN)NC(=O)[C@@H]2[C@@H](O)CCN2C(=O)[C@H]([C@H](O)CCN)NC(=O)[C@H]([C@H](O)[C@@H](O)c2ccc(O)cc2)NC(=O)[C@@H]2C[C@@H](O)CN2C(=O)[C@H]([C@@H](C)O)NC1=O [CSP, caspofungin]	–	–	0.015 µg/mL (≈ 0.0137 µM)	–	0.02 µg/mL (≈ 0.0183 µM)
